{"source": "patent US20120219636A1", "about": "“ENHANCED REMOVAL OF VIRUSES FROM FRESH PRODUCE” (THE OHIO STATE UNIVERSITY, priority 2011, published 2012)", "key": {"MNV-1 [1]": {"test_system": "MNV-1", "format": "cell-based, murine norovirus"}, "VSV [2]": {"test_system": "VSV", "format": "cell-based, vesicular stomatitis virus (VSV) Indian strain"}, "MNV-1 [3]": {"test_system": "MNV-1", "experiment": "Sanitization wash of MNV-1 inoculated fresh produce, viral survivors by plaque assay", "parameters": "species or system murine norovirus", "settings": "for virus reduction: 2 min wash"}, "VSV [4]": {"test_system": "VSV", "parameters": "species or system vesicular stomatitis virus (VSV) Indian strain", "settings": "10,000 ppm; 37° C.; 72 hours"}, "MNV-1 [5]": {"test_system": "MNV-1", "experiment": "Transmission electron microscopy of purified MNV-1 after surfactant treatment", "parameters": "species or system murine norovirus"}, "foodborne viruses": {"test_system": "foodborne viruses", "settings": "cited from earlier work"}, "[6]": {"settings": "200 ppm surfactant, 37° C., 72 hours"}}, "note": "Like-named read-outs stand apart in the source and are kept apart here.", "data": [{"molecule": "CCCCCCCCCCCCOS(=O)(=O)[O-].[Na+]", "note": "[SDS, sodium dodecyl sulfate]", "values": [{"measurement": "virus inactivation confirmed by plaque assay", "setting": "MNV-1 [1]", "value": "completely inactivated"}, {"measurement": "reduction in MNV-1 titer", "setting": "MNV-1 [1]; 1,000 ppm surfactant, 37° C., 72 hours", "value": "highest reduction in MNV-1 titer"}, {"measurement": "virus reduction", "setting": "MNV-1 [1]; 10,000 ppm surfactant, 37° C., 72 hours", "value": "almost completely inactivated"}, {"measurement": "virus reduction", "setting": "VSV [2]; [6]", "value": 7.5, "unit": "logs"}, {"measurement": "virus reduction", "setting": "VSV [2]; 200 ppm, 37° C., 4 hours", "value": 5, "unit": "logs"}, {"measurement": "virus inactivation confirmed by plaque assay", "setting": "VSV [2]; purified VSV, 10,000 ppm, 37° C., 72 hours", "value": "completely inactivated"}, {"measurement": "enhancement of efficiency of virus reduction over traditional sanitizers (chlorine solution alone)", "setting": "MNV-1 [3]; fresh produce", "value": 100, "unit": "fold"}, {"measurement": "virus reduction", "setting": "MNV-1 [3]; lettuce, 50 ppm surfactant alone", "value": 2.26, "unit": "logs"}, {"measurement": "virus reduction", "setting": "MNV-1 [3]; raspberries, 50 ppm surfactant alone", "value": 2.63, "unit": "logs"}, {"measurement": "virus reduction", "setting": "MNV-1 [3]; strawberries, 50 ppm surfactant alone, room temperature", "value": 3.14, "unit": "logs"}, {"measurement": "virus reduction", "setting": "MNV-1 [3]; strawberries, 100 ppm SDS alone", "value": 3.41, "unit": "logs"}, {"measurement": "virus reduction", "setting": "MNV-1 [3]; strawberries, 200 ppm SDS alone", "value": 3.12, "unit": "logs"}, {"measurement": "virus reduction", "setting": "MNV-1 [3]; strawberries, 1,000 ppm SDS alone", "value": 3.51, "unit": "logs"}, {"measurement": "damage to VSV virus particles (electron microscopy)", "setting": "VSV [4]", "value": "viral envelope was damaged and the shape of VSV was severely distorted"}, {"measurement": "damage to MNV-1 virus particles (electron microscopy)", "setting": "MNV-1 [5]", "value": "outer capsid of the MNV-1 was severely damaged and aggregated"}]}, {"molecule": "CC(=O)OO", "note": "[peracetic acid]", "values": [{"measurement": "additional reduction over tap water washing", "setting": "foodborne viruses", "value": 0.77, "unit": "logs"}]}, {"molecule": "NP40", "values": [{"measurement": "virus reduction", "setting": "VSV [2]", "value": "10.", "unit": "logs"}, {"measurement": "virus reduction compared with tap water or chlorine solution", "setting": "MNV-1 [3]; four types of fresh produce, 50 ppm surfactant alone", "value": "increased virus reduction than did tap water or chlorine solution"}]}, {"molecule": "Triton X-100", "values": [{"measurement": "virus reduction", "setting": "VSV [2]; [6]", "value": 6.7, "unit": "logs"}, {"measurement": "additional virus reduction than that of the chlorine solution", "setting": "MNV-1 [3]", "value": "~1", "unit": "log"}]}, {"molecule": "OCl", "note": "[sodium hypochlorite]", "values": [{"measurement": "additional virus reduction over tap water washing", "setting": "foodborne viruses", "value": 0.48, "unit": "logs"}, {"measurement": "virus reduction", "setting": "foodborne viruses", "value": "less than 1 log"}]}, {"molecule": "Tween 20", "values": [{"measurement": "virus reduction", "setting": "VSV [2]; [6]", "value": 2.7, "unit": "logs"}]}]}
